Patent US4049495A, “Physiologically active substances and fermentative process for producing the same” (Sankyo Company Limited, priority 1974, dated 1977)
Converted amounts (≈) assume the structure as drawn.

Experiments:
cholesterol biosynthesis = experiment: inhibition of cholesterol biosynthesis in vitro (rat liver slice, radioactive acetic acid); type: cell-based; settings: 1 h, 37° C., 60 minutes, read-out: concentration exhibiting about 50% inhibition of cholesterol biosynthesis
Description: I. The activity in vitro on inhibition of cholesterol biosynthesis of the substances ML-236 may be assayed by the following method. Slice of rat liver and radioactive acetic acid are brought to interaction at 37° C. for 60 minutes, the radioactive cholesterol thus biosynthesized is saponified and separated as precipitates with digitonin and then its radioactivity is measured to determine the produced cholesterol amount. Separately, the same procedures as above are employed except that ML-236 is added at the beginning of the reaction, thereby the biosynthesized cholesterol amount being determined. Thus, an effect of ML-236 can be quantitively determined. (See Bricker et al.: The Journal of Biological Chemistry, 247, 4914, 1972).

[1] = test system: cholesterol and neutral lipid levels in blood serum; experiment: lowering of cholesterol and neutral lipid in blood serum of rats, oral ML-236A in gum arabic; type: in vivo; settings: 5 mg./kg. in gum arabic, vs gum arabic alone
Description: 2. Two of four groups of rats, each group consisting of 5 animals, were orally given one dose of 5 mg./kg. of ML-236A suspended in gum arabic. After 3 hours and 18 hours from administration, animals were sacrificed by bleeding and blood was collected. Cholesterol and neutral lipid levels in blood serum were determined by a conventional method.

[2] = solubility in organic solvents; type: physicochemical
[3] = test system: cholesterol levels in blood and liver; experiment: lowering of cholesterol in blood and liver of Triton WR 1339-treated rats; type: in vivo; settings: 20 mg./kg. intraperitoneal, with Triton WR 1339 200 mg./kg. i.v., 24 hours, vs Triton alone
Description: 1. One of two groups of rats having an average weight of about 200 g., each group consisting of 5 animals, was individually given by intraveneous injection with 200 mg./kg. of Triton WR 1339 (trade name; available from Ruger Chemical Co., Ltd., U.S.A.; having an activity of increasing cholesterol level in blood) simultaneously with intraperitoneal administration of 20 mg./kg. of ML-236B. After 24 hours from administration, rats were sacrificed by bleeding, blood and liver were collected and their cholesterol and neutral lipid levels were determined by a conventional method.

[4] = test system: cholesterol and neutral lipid levels in blood serum; experiment: lowering of cholesterol and neutral lipid in blood serum of rats, oral ML-236B in physiological saline; type: in vivo; settings: 80 mg./kg. powdery in physiological saline solution, vs saline
Description: Moreover, one of two other groups of rats, each group consisting of 5 animals, were orally given 80 mg./kg. of powdery ML-236B in the form of a physiological saline solution. After 3 hours from administration, cholesterol and neutral lipid levels in blood serum were determined in the same manner as above.

[5] = in methanol, ethanol, acetone, ethyl acetate, chloroform and benzene
[6] = in n-hexane and petroleum ether

| SMILES | IC50 (cholesterol biosynthesis) [µg/mL] | lowering of cholesterol level in blood serum after 3 hours ([1]; 3 hours) [%] | lowering of neutral lipid level in blood serum after 3 hours ([1]; 3 hours) [%] | lowering of cholesterol level in blood serum after 18 hours ([1]; 18 hours) [%] | lowering of neutral lipid level in blood serum after 18 hours ([1]; 18 hours) | Solubility [2, 5] | Solubility [2, 6] | lowering of cholesterol level in blood [3] [%] | lowering of cholesterol level in liver [3] [%] | lowering of cholesterol level in blood serum after 3 hours [4] [%] | lowering of neutral lipid level in blood serum after 3 hours [4] [%] |
| --- | --- | --- | --- | --- | --- | --- | --- | --- | --- | --- | --- |
| CC1C=CC2=CCCC(O)C2C1CCC1CC(O)CC(=O)O1 (centres unmarked) [ML-236A] | ~0.04 (≈ 0.131 µM) | 13.5 | 49.5 | 13.5 | not observed | Soluble | Insoluble |  |  |  |  |
| CCC(C)C(=O)OC1CCC=C2C=CC(C)C(CCC3CC(O)CC(=O)O3)C21 (centres unmarked) [ML-236B] | ~0.01 (≈ 0.0256 µM) |  |  |  |  | Soluble | Insoluble | 14.2 | 10.1 | 20.0 | 44.2 |
| CC1C=CC2=CCCCC2C1CCC1CC(O)CC(=O)O1 (centres unmarked) [ML-236C] | ~0.08 (≈ 0.275 µM) |  |  |  |  | Soluble | Insoluble |  |  |  |  |
